Measured values taken from patent US6376666B1 (Nauchno-Issledovatelsky Institut Farmakologii Rossiiskoi …, priority 1994, dated 2002).

Key:
in vivo = conditions: rat, iv
[1] = test system: ischemized myocardium of cats; assay: contractile and pump functions and ATP level of ischemized myocardium (20-40 min occlusion, reperfusion); format: in vivo
Method: The effects of this compound on contractile and pump functions of ischemized myocardium were studied in cats weighing 3,0-4,5 kg under anesthesia with nembutal (40 mg/kg). […] The phase curve of blood flow in ascending part of the aortic arch was recorded with electromagnetic blood flowmeter MFV-1200 (“Nihon-Kohden”, Japan). Hemodynamics, heart activity values and the number of arrhythmia were calculated. In the experiments with 40 min ischemia immediately after 60 min the intact and ischemized zones of left ventricle were dissected and freezed in liquid nitrogen. ATP level was measured using hexokinase method in these zones. 4 series of experiments (2-control and 2-basic) were conducted in 12 cats in each. For statistical calculation the t-Student and Fisher's precision test were used.

male outbred mice = assay: potentiation of sleep induced by sodium thiopental; format: in vivo
Method: The possible hypnotic effects of choosen drugs was estimated according to method of potentiation of sleep induced by sodium thiopental. The male outbred mice weighing 20-25 g were injected i.p. with sodium thiopental at dose of 70 mg/kg. Two parameters were estimated: latent time of sleeping and duration of sleep. The used compounds were administered i.p. 30 min prior injection of sodium thiopental.

[2] = 40 min occlusion, 60 min reperfusion
[3] = 0.01 mg/kg i.p. 30 min before thiopental 70 mg/kg i.p.
[4] = 0.1 mg/kg i.p. 30 min before thiopental 70 mg/kg i.p.
[5] = 1.0 mg/kg i.p. 30 min before thiopental 70 mg/kg i.p.
[6] = 5.0 mg/kg i.p. 30 min before thiopental 70 mg/kg i.p.
[7] = 10.0 mg/kg i.p. 30 min before thiopental 70 mg/kg i.p.

SMILES | LD50 (in vivo) [mg/kg] | effect on number of arrhythmias during occlusion and reperfusion, in words ([1]; 20 min occlusion, 30 min reperfusion) | effect on cardiac output, in words ([1]; 20 min occlusion, 30 min reperfusion, 1,0 mg/kg bolus +50 mcg/kg/min i.v.) | effect on inhibition of contractile function of myocardium induced by ischemic damage, in words ([1]; 20 min occlusion, 30 min reperfusion, 1,0 mg/kg bolus +50 mcg/kg/min i.v. during 30 min) | effect on ATP level in intact zones of myocardium, in words [1, 2] | effect on cardiac output, in words [1, 2] | effect on stroke volume, in words [1, 2] | effect on ATP level in ischemized myocardium, in words ([1]; 40 min occlusion, 60 min reperfusion, hexokinase method) | effect on number of arrhythmias induced by occlusion and reperfusion, in words ([1]; critical and mild ischemia) | effect on inhibition of contractile function of heart, in words ([1]; critical ischemia: 40 min occlusion, 60 min reperfusion) | duration of sleep after sodium thiopental (male outbred mice; [3]) [min] | latent time of sleep after sodium thiopental (male outbred mice; [3]) [s] | duration of sleep after sodium thiopental (male outbred mice; [4]) [min] | latent time of sleep after sodium thiopental (male outbred mice; [4]) [s] | duration of sleep after sodium thiopental (male outbred mice; [5]) [min] | latent time of sleep after sodium thiopental (male outbred mice; [5]) [s] | duration of sleep after sodium thiopental (male outbred mice; [6]) [min] | latent time of sleep after sodium thiopental (male outbred mice; [6]) [s] | duration of sleep after sodium thiopental (male outbred mice; [7]) [min] | latent time of sleep after sodium thiopental (male outbred mice; [7]) [s]
CCOc1ccc2nc(SCCN(CC)CC)[nH]c2c1 [Compound IX, 2-[2-(Diethylamino)ethylthio]-5-ethoxybenz-imidazole] | 31.5 | decreased the number of arrhythmias | prevented the decrease in cardiac output | significantly prevents the inhibition of contractile function of myocardium | did not change it in the intact zones | no effect on changes in cardiac output | prevented the decrease in stroke volume | increased the ATP level in the ischemized myocardium | did not reduced the number of arrhythmias | prevented the inhibition of contractile function of heart | – | – | – | – | – | – | – | – | – | –
CCOc1ccc2nc(SCCN3CCOCC3)[nH]c2c1 [XII, 2-[2-(Morpholino)ethylthio]-5-ethoxybenzimidazole] | – | – | – | – | – | – | – | – | – | – | 76.4 ± 16.7 | 1.86 ± 0.27 | 54.5 ± 9.9 | 1.94 ± 0.18 | 67.9 ± 4.3 | 2.78 ± 0.17 | 71.7 ± 14.6 | 2.21 ± 0.17 | 92.4 ± 9.9 | 2.28 ± 0.24
